Where no end group is shown, it is not given here.
Assays:
[1] = test system: 786-0 human renal cell adenocarcinoma cell line; assay: Pro-angiogenic activity: growth of xenograft tumor in nude mouse; type: in vivo, nude mouse (nu/nu)
Procedure: Tumors require vascularization to obtain nutrients to support growth. Therefore, stimulation of growth of a tumor in response to administration of a construct of this invention is an indication of angiogenesis. For this example, a xenograph model system with the nude mouse (nu/nu) was used to determine the effect of peptide on growth of 786-0 human renal cell adenocarcinoma cell line injected into the flank of a mouse so as to induce a tumor. After the tumor was established, peptide was injected subcutaneously on alternate days. The weight of the tumor was estimated by calculation of the volume.
FIG. 4 illustrates data resulting from assays for pro-angiogenic activity for one embodiment of the invention. […] The peptide was also assayed in combination with Sorafenib, an anti-angiogenic drug.

[2] = test system: macrophages in PBMC cultures; assay: Stimulation of phagocytosis: macrophages engulfing microspheres opsonized with anti-HIV antibodies; type: cell-based, human; settings: PBMC cultures pretreated; control cultures 0 to 3 beads
Procedure: The activity of the peptides to stimulate phagocytosis was assessed by the ability of macrophages to engulf microspheres opsonized with anti-HIV antibodies. A biotin-tagged peptide epitope of a surface protein of HIV-1 was bound to streptavidin on the surface of the beads. An antibody preparation that was raised against this epitope was then bound to the HIV peptide. The beads were then washed and presented to PBMC cultures pretreated with peptides. Macrophages in cultures not treated with peptides had little, if any, phagocytic activity. In multiple control cultures, the number of beads within a macrophage-like cell ranged from 0 to 3. In the cultures treated with peptide constructs containing four copies of the peptide sequences WNSTL (SEQ ID NO:1), NQHTPR (SEQ ID NO:2), or VQATQS (SEQ ID NO:8), an average of 10 beads were counted in each phagocytic cell, with no substantial difference between peptide constructs.

[3] = test system: peripheral blood mononuclear cells (PBMCs); assay: Regulation of cytokine release: cytokine antibody array on medium of PBMC cultures; type: cell-based, human; settings: for Relative concentration of Eotaxin / Relative concentration of Eotaxin-2 / Relative concentration of IL-12p40 / Relative concentration of IL-12p70 / Relative concentration of IL-15 / Relative concentration of IL-16 / Relative concentration of IL-17 / Relative concentration of IL-21 / Relative concentration of M-CSF / Relative concentration of MCP-2 / Relative concentration of MIG / Relative concentration of MIP-1b / Relative concentration of TIMP-2 / Relative concentration of TNF-β / Relative concentration of sTNF RII / Relative concentration of I-309 / Relative concentration of IL-4 / Relative concentration of IL-6 / Relative concentration of IL-10 / Relative concentration of IP-10 / Relative concentration of MCP-1 / Relative concentration of PDGF-BB / Relative concentration of TGF-β1 / Relative concentration of TNF-α / Relative concentration of sTNF RI / Relative concentration of GM-CSF / Relative concentration of ICAM-1 / Relative concentration of IFN-γ / Relative concentration of IL-1α / Relative concentration of GCSF / Relative concentration of IL-1β / Relative concentration of IL-6sR / Relative concentration of IL-7 / Relative concentration of IL-8 / Relative concentration of IL-11 / Relative concentration of RANTES: construct 100 nM; for relative IL-6 concentration: in one experiment, untreated control 98
Procedure: To determine whether the peptides regulate induction or inhibition of release of cytokines, cultured peripheral blood mononuclear cells (PBMCs) were treated with one peptide embodiment of the invention and, after 4 hour incubation, the medium was collected and assayed for changes in the amounts of 40 different cytokines. The peptide construct containing four copies of WNSTL (SEQ ID NO:1), illustrated in FIG. 2A, was added at a concentration of 100 nM in each of the assays. The PBMC cultures were established with cells from Cellular Technology, Ltd. (Shaker Heights, Ohio). Approximately 3 million cells of frozen human PBMCs were thawed at 37° C. and transferred to a 50 mL conical tube where 8 mL of wash medium were added slowly. Then an additional 8 mL were added and swirled to mix. The cells were then centrifuged at 330 g for 10 min, the supernatant was removed and the pellet was resuspended in 10 mL wash medium and centrifuged as above. The washed cells were then resuspended in RPMI 1640 medium containing 10% FBS to about 6 million cells per mL and 100 μL of the suspension were added into each well of a 96-well microtiter plate and incubated overnight at 37° C. in humidified 5% CO2. After 24 hr, the medium was replaced with 200 μL fresh RPMI 1640 medium containing 10% FBS and incubated at 37° C. in humidified 5% CO2 for 2 days. For the data shown in TABLE 1, an aliquot of the peptide construct was added to samples in duplicate at a final concentration of 5 nM or 100 nM and incubated at 37° C. in humidified 5% CO2 for 4 hr. For other experiments (data not included), the incubation was continued for 24 hr. The medium was then removed and stored at […]. The samples were analyzed for production of cytokines. One set of control cells was not treated with an experimental agent. A second set of control cells was treated with LPS, the agent commonly used to induce production of a variety of inflammatory cytokines.
Assays of cytokine levels in samples of culture media were performed using methods developed by RayBiotech, Inc. (Norcross, Ga.). In this technology, membrane arrays of antibodies against cytokines were incubated with samples of media. After washing, the array was incubated with a cocktail of all antibodies tagged with biotin. The membrane was then washed free of unbound antibodies and incubated with streptavidin labeled with a fluorescent dye. After a final wash, the membrane arrays were read in a fluorescence detector and the intensities of the spots quantitated to obtain relative values.
One set of control samples was not treated with peptide and a second set of control samples was treated with lipopolysaccharide (LPS) in the absence of the peptide construct. The structure of the construct is illustrated in FIG. 2A. […] The decrease in IL-8 concentration in the peptide-treated sample, as compared with the amount of IL-8 in the sample treated with the proto-typical inflammatory agent LPS, is particularly notable. […] The increase in the proangiogenic PDGF-BB and the decrease in the inflammatory IL-8, without concomitant stimulation of inflammation, are of particular importance with respect to wound healing. […]

## CNC(=O)c1cc(Oc2ccc(NC(=O)Nc3ccc(Cl)c(C(F)(F)F)c3)cc2)ccn1 [Sorafenib, reference compound]
[1]; in combination with the WNSTL construct
  effect on the peptide-enhanced tumor growth: strongly (but not completely) inhibited

## IFN-γ: cytokine Interferon-gamma used as comparison treatment [reference compound]
[2]
  average beads counted in each phagocytic cell: roughly 15 beads

## NQHTPR: branched construct: four copies of core sequence NQHTPR, each via GGGS linker on tri-lysine framework (also: tetramer: four copies each via GGGS linker on tri-lysine framework (branched))
[3]; PBMCs in serum, 4 hr
  Relative concentration of Eotaxin: 57
  Relative concentration of Eotaxin-2: 310
  Relative concentration of IL-12p40: 45
  Relative concentration of IL-12p70: 65
  Relative concentration of IL-15: 146
  Relative concentration of IL-16: 8
  Relative concentration of IL-17: 14
  Relative concentration of IL-21: 200
  Relative concentration of M-CSF: 116
  Relative concentration of MCP-2: 90
  Relative concentration of MIG: 100
  Relative concentration of MIP-1b: 777
  Relative concentration of TIMP-2: 110
  Relative concentration of TNF-β: 84
  Relative concentration of sTNF RII: 26
[2]
  average beads counted in each phagocytic cell: 10 beads

## VQATQS: construct containing four copies of core sequence VQATQS (also: four copies, branched construct)
[3]; PBMCs in serum, 4 hr
  Relative concentration of Eotaxin-2: 401
  Relative concentration of I-309: 101
  Relative concentration of IL-4: 64
  Relative concentration of IL-6: 167
  Relative concentration of IL-10: 67
  Relative concentration of IL-12p40: 74
  Relative concentration of IL-12p70: 112
  Relative concentration of IL-15: 134
  Relative concentration of IL-16: 10
  Relative concentration of IL-17: 21
  Relative concentration of IL-21: 90
  Relative concentration of IP-10: 334
  Relative concentration of M-CSF: 90
  Relative concentration of MCP-1: 1,966
  Relative concentration of PDGF-BB: 83
  Relative concentration of TGF-β1: 83
  Relative concentration of TIMP-2: 175
  Relative concentration of TNF-α: 98
  Relative concentration of TNF-β: 91
  Relative concentration of sTNF RI: 75
  Relative concentration of sTNF RII: 20
[2]
  average beads counted in each phagocytic cell: 10 beads

## VSNQH: construct containing four copies of core sequence VSNQH (also: four copies of core sequence, branched construct)
[3]; PBMCs in serum, 4 hr
  Relative concentration of Eotaxin: 47
  Relative concentration of Eotaxin-2: 470
  Relative concentration of GM-CSF: 96
  Relative concentration of ICAM-1: 70
  Relative concentration of IFN-γ: 170
  Relative concentration of IL-1α: 322
  Relative concentration of IL-12p40: 52
  Relative concentration of IL-12p70: 117
  Relative concentration of IL-15: 137
  Relative concentration of IL-17: 21
  Relative concentration of IL-21: 130
  Relative concentration of IP-10: 377
  Relative concentration of MCP-2: 97
  Relative concentration of MIG: 94
  Relative concentration of PDGF-BB: 82
  Relative concentration of TIMP-2: 285
  Relative concentration of TNF-α: 138
  Relative concentration of TNF-β: 93

## WNSTL: branched construct: four copies of core sequence WNSTL, each via GGGS linker on tri-lysine framework, C-terminal amide (also: four copies, each via GGGS linker on tri-lysine framework, C-terminal amide of construct)
[3]; 4 hr
  decrease in concentration of several cytokines as compared to untreated control samples: more than a two-fold decrease
[3]; PBMCs in serum, 4 hr
  Relative concentration of Eotaxin-2: 109
  Relative concentration of GCSF: 50
  Relative concentration of ICAM-1: 44
  Relative concentration of IFN-γ: 103
  Relative concentration of IL-1β: 120
  Relative concentration of IL-4: 97
  Relative concentration of IL-6sR: 32
  Relative concentration of IL-7: 93
  Relative concentration of IL-8: 144
  Relative concentration of IL-10: 43
  Relative concentration of IL-11: 49
  Relative concentration of IL-12p40: 228
  Relative concentration of IL-12p70: 131
  Relative concentration of MCP-1: 968
  Relative concentration of PDGF-BB: 159
  Relative concentration of RANTES: 145
  Relative concentration of TIMP-2: 25
  Relative concentration of sTNF RI: 78
[3]; compared to untreated controls, 4 hr
  cytokines induced to higher concentrations: PDGF-BB, IL-1β, IL-4, IL-1, IL-12 and RANTES: more than two-fold higher
[3]
  relative IL-6 concentration: 93
[1]; 0.05 nmole/gm subcutaneously on alternate days, tumor weight estimated from volume
  growth of the tumor enhanced over the control, factor: 1.7
[2]
  average beads counted in each phagocytic cell: 10 beads

## lipopolysaccharide [LPS, reference compound]
[3]; PBMCs in serum, 4 hr
  Relative concentration of IL-2: 90
  Relative concentration of IL-3: 132
  Relative concentration of IL-13: 125
  Relative concentration of MIP-1a: 237
  Relative concentration of MIP-1d: 38
  change in the amount of the inflammatory cytokine IL-6 compared to untreated control samples: significantly elevated
  Relative concentration of Eotaxin: 31
  Relative concentration of Eotaxin-2: 469
  Relative concentration of GCSF: 120
  Relative concentration of GM-CSF: 106
  Relative concentration of I-309: 39
  Relative concentration of ICAM-1: 53
  Relative concentration of IFN-γ: 158
  Relative concentration of IL-1α: 246
  Relative concentration of IL-1β: 47
  Relative concentration of IL-4: 49
  Relative concentration of IL-6: 4,375
  Relative concentration of IL-6sR: 52
  Relative concentration of IL-7: 178
  Relative concentration of IL-8: 840
  Relative concentration of IL-10: 218
  Relative concentration of IL-11: 26
  Relative concentration of IL-12p40: 46
  Relative concentration of IL-12p70: 89
  Relative concentration of IL-15: 104
  Relative concentration of IL-16: 2
  Relative concentration of IL-17: 10
  Relative concentration of IP-10: 268
  Relative concentration of M-CSF: 59
  Relative concentration of MCP-2: 177
  Relative concentration of MIG: 66
  Relative concentration of MIP-1b: 1,828
  Relative concentration of PDGF-BB: 56
  Relative concentration of RANTES: 114
  Relative concentration of TGF-β1: 62
  Relative concentration of TIMP-2: 92
  Relative concentration of TNF-α: 93
  Relative concentration of TNF-β: 95
  Relative concentration of sTNF RI: 58
  Relative concentration of sTNF RII: 26
[3]
  relative IL-6 concentration: 5,879

— USRE47245E1, “Pro-angiogenic peptides and uses thereof” (Susavion Biosciences, Inc., priority 2006, dated 2019)
